# Measured values reported in PubChem BioAssay AID1259408 (Genetic Toxicology Data Bank (GENE-TOX), 2018).
# Calls of active or inactive are those of the source. The rule behind the calls is not given here.
# Tested on: GENE-TOX genotoxicity assays, various organisms and cells
# Assay: GENE-TOX mutagenicity studies
# Conditions: for call: Assay Type: In vivo carcinogenicity studies
# [1] = Species/Cell Type: Human lymphocytes, Assay Type: Sister-chromatid exchange (SCE) in vitro, Assay Code: SCLT, Evaluation Type: Evaluation B (Post-1980)
# [2] = Species/Cell Type: Human, Assay Type: Sister-chromatid exchange (SCE) in vitro, Assay Code: SC1T, Evaluation Type: Evaluation B (Post-1980)
# [3] = Species/Cell Type: Drosophila melanogaster, Assay Type: Sex-linked recessive lethal gene mutation, Assay Code: SRLT, Evaluation Type: Evaluation A (Pre-1980)
# [4] = Species/Cell Type: Nonhuman, Assay Code: CCG+, Evaluation Type: Evaluation A (Pre-1980)
# [5] = Species/Cell Type: Bacillus subtilis (H17 vs M45), Assay Type: Rec-assay, spot test, DNA effects (bacterial DNA repair), Assay Code: REW-, Evaluation Type: Evaluation A (Pre-1980)
# [6] = Species/Cell Type: Salmonella typhimurium (one or more of the five standard strains: TA98, TA100, TA1535, TA1537, and TA1538), Assay Type: Histidine reverse gene mutation, Ames assay, Assay Code: SAL+, Evaluation Type: Evaluation A (Pre-1980)
# [7] = Species/Cell Type: Salmonella typhimurium (one or more of the five standard strains: TA98, TA100, TA1535, TA1537, and TA1538), Assay Type: Histidine reverse gene mutation, Ames assay, Assay Code: SALT, Evaluation Type: Evaluation A (Pre-1980)
# [8] = Species/Cell Type: Salmonella typhimurium (one or more of the five standard strains: TA98, TA100, TA1535, TA1537, and TA1538), Assay Type: Histidine reverse gene mutation, Ames assay, Assay Code: SAL+*, Activation: With metabolic activation, Evaluation Type: Evaluation A (Pre-1980)
# [9] = Species/Cell Type: Human lymphocytes, Assay Type: Sister-chromatid exchange (SCE) in vitro, Assay Code: SCL+D, Dose Response: With dose response, Evaluation Type: Evaluation B (Post-1980)
# [10] = Species/Cell Type: Human, Assay Type: Sister-chromatid exchange (SCE) in vitro, Assay Code: SC1+D, Dose Response: With dose response, Evaluation Type: Evaluation B (Post-1980)
smiles,measurement,setting,value
CC(C)C[C@H]1C(=O)N2CCC[C@H]2[C@]2(O)O[C@](NC(=O)[C@@H]3C=C4c5cccc6[nH]c(Br)c(c56)C[C@H]4N(C)C3)(C(C)C)C(=O)N12,mutagenic call,[1],no conclusion
same,mutagenic call,[2],no conclusion
same,mutagenic call,"Species/Cell Type: Human, Sex: Male, Assay Type: Sperm morphology, Assay Code: SPH-, Evaluation Type: Evaluation A (Pre-1980)",inactive; negative
[CH3][Hg+],mutagenic call,"Species/Cell Type: Allium cepa, Assay Type: Chromosome aberrations, Assay Code: ALC+D, Dose Response: With dose response, Evaluation Type: Evaluation A (Pre-1980)",active; positive
same,mutagenic call,"Species/Cell Type: Drosophila melanogaster, Assay Type: Aneuploidy, sex chromosome gain, chromosome aberrations, Assay Code: DAG+M+F, Evaluation Type: Evaluation A (Pre-1980)",active; positive
same,mutagenic call,"Species/Cell Type: Drosophila melanogaster, Assay Type: Aneuploidy, whole sex chromosome loss, chromosome aberrations, Assay Code: DAC+M+F, Evaluation Type: Evaluation A (Pre-1980)",active; positive
O=Nc1c(O)c(S(=O)(=O)O)cc2cc(S(=O)(=O)O)ccc12,mutagenic call,"Species/Cell Type: Glycine max (soybean), Assay Type: Gene mutation, Assay Code: GLM-, Evaluation Type: Evaluation A (Pre-1980)",inactive; negative
CC(CN1CC(=O)NC(=O)C1)N1CC(=O)NC(=O)C1 (configuration not stated),mutagenic call,"Species/Cell Type: Salmonella typhimurium (one or more of the five standard strains: TA98, TA100, TA1535, TA1537, and TA1538), Assay Type: Histidine reverse gene mutation, Ames assay, Assay Code: SAL-, Evaluation Type: Evaluation A (Pre-1980)",inactive; negative
CN(N=O)C(=O)Nc1ccccc1,mutagenic call,"Species/Cell Type: Nonhuman, Assay Type: Sister-chromatid exchange (SCE) in vitro, Assay Code: SC2+D, Dose Response: With dose response, Evaluation Type: Evaluation B (Post-1980)",active; positive
ClC(Cl)=C(c1ccc(Cl)cc1)c1ccccc1Cl,mutagenic call,"Species/Cell Type: Nonhuman, Assay Type: Chromosome aberrations in vitro, Assay Code: CY&-, Evaluation Type: Evaluation A (Pre-1980)",inactive; negative
COC(C)[C@](O)(C(=O)O)C(C)C (some centres not stated),mutagenic call,[3],no conclusion
[Be],call,[4],active; positive
[Cl][Sn]([Cl])([Cl])[Cl],mutagenic call,[5],inactive; negative
OCC(Br)CBr (configuration not stated),mutagenic call,[6],active; positive
O[C@@H]1C=Cc2c(cc3ccc4cccc5ccc2c3c45)[C@@H]1O,mutagenic call,[7],no conclusion
CCOC(=O)N(C)C(=O)CSP(=S)(OCC)OCC,mutagenic call,"Species/Cell Type: Bacillus subtilis (H17 vs M45), Assay Type: Rec-assay, spot test, DNA effects (bacterial DNA repair), Assay Code: REWT, Evaluation Type: Evaluation A (Pre-1980)",no conclusion
Nc1ncnc2c1ncn2[C@@H]1O[C@H](CO)[C@@H](O)[C@@H]1O,mutagenic call,"Species/Cell Type: Vicia faba, Assay Type: Chromosome aberrations, Assay Code: VIC+D, Dose Response: With dose response, Evaluation Type: Evaluation A (Pre-1980)",active; positive
O=C1c2ccccc2C(=O)c2c1ccc(O[C@@H]1O[C@H](CO)[C@@H](O)[C@H](O)[C@H]1O)c2O,mutagenic call,[8],active; positive
CN(C)c1ccc(N(C)C)c2c1C(=O)c1c(O)ccc(O)c1C2=O,mutagenic call,[6],active; positive
CCBr,mutagenic call,[3],no conclusion
NS(=O)(=O)c1cc(C(=O)O)c(NCc2ccco2)cc1Cl,mutagenic call,[2],no conclusion
same,mutagenic call,"Species/Cell Type: Saccharomyces cerevisiae, Assay Type: Mitotic recombination or gene conversion, Assay Code: YEC-*, Activation: With metabolic activation, Evaluation Type: Evaluation A (Pre-1980)",inactive; negative
same,mutagenic call,[7],no conclusion
CC(C)(C)NCC(O)COc1cccc2c1CCC(=O)N2 (configuration not stated),mutagenic call,[5],inactive; negative
same,mutagenic call,"Species/Cell Type: Escherichia coli WP2, Assay Type: Tryptophan reverse gene mutation, Assay Code: WP2-, Evaluation Type: Evaluation A (Pre-1980)",inactive; negative
same,mutagenic call,"Species/Cell Type: Escherichia coli WP2 UVRA, Assay Type: Tryptophan reverse gene mutation, Assay Code: WPU-, Evaluation Type: Evaluation A (Pre-1980)",inactive; negative
same,mutagenic call,"Species/Cell Type: Salmonella typhimurium, Assay Type: Forward and reverse gene mutation, host-mediated assay, Assay Code: HMA-, Evaluation Type: Evaluation A (Pre-1980)",inactive; negative
Cc1c(C)c2c(c(C)c1O)CC[C@@](C)(CCC[C@H](C)CCC[C@H](C)CCCC(C)C)O2,mutagenic call,[1],no conclusion
same,mutagenic call,[2],no conclusion
Nc1ccc2ccc3ccccc3c2n1,mutagenic call,[8],active; positive
CS/C(C)=N/OC(=O)N(C)N=O,mutagenic call,[6],active; positive
CN(C)CCCN1c2ccccc2Sc2ccc(Cl)cc21,mutagenic call,"Species/Cell Type: Chinese hamster lung (V79) cells, Assay Type: Forward gene mutation at the HPRT or ouabain locus, Assay Code: V79-, Evaluation Type: Evaluation A (Pre-1980)",inactive; negative
same,mutagenic call,[9],active; positive
same,mutagenic call,[10],active; positive
same,call,"Species/Cell Type: Nonhuman, Assay Code: CCGT, Evaluation Type: Evaluation A (Pre-1980)",no conclusion
same,mutagenic call,"Species/Cell Type: Nonhuman, Assay Type: Sister-chromatid exchange (SCE) in vitro, Assay Code: SC2+D, Dose Response: With dose response, Evaluation Type: Evaluation A (Pre-1980)",active; positive
same,mutagenic call,"Species/Cell Type: Nonhuman, Assay Type: Sister-chromatid exchange (SCE) in vivo, Assay Code: SC3T, Evaluation Type: Evaluation B (Post-1980)",no conclusion
COc1ccccc1O,mutagenic call,"Species/Cell Type: Allium cepa, Assay Type: Chromosome aberrations, Assay Code: ALC+, Evaluation Type: Evaluation A (Pre-1980)",active; positive
same,mutagenic call,[9],active; positive
same,mutagenic call,[10],active; positive
same,mutagenic call,[7],no conclusion
O=CNc1nc(-c2cc([N+](=O)[O-])c[nH]2)cs1,mutagenic call,[7],no conclusion
O=[N+]([O-])c1ccc(Oc2ccc(Cl)cc2Cl)cc1,mutagenic call,"Species/Cell Type: Mammalian polychromatic erythrocytes, Assay Type: Micronucleus test, chromosome aberrations, Assay Code: MNTT, Evaluation Type: Evaluation A (Pre-1980)",no conclusion
same,call,[4],active; positive
Cc1ccc2cc3c4c(ccc3c3c2c1CC3)C(O)C(O)C=C4 (configuration not stated),mutagenic call,"Species/Cell Type: Chinese hamster lung (V79) cells, Assay Type: Forward gene mutation at the HPRT or ouabain locus, Assay Code: V79+, Evaluation Type: Evaluation A (Pre-1980)",active; positive
same,call,"Species/Cell Type: Nonhuman, Assay Code: CCG+L, Evaluation Type: Evaluation A (Pre-1980)",active; positive
same,mutagenic call,[8],active; positive
